This is an account of results in patent US12600740B2, “Fluorinated N-acetyl glucosamine analogs and xylose derivatives” (UTI Limited Partnership, priority 2018, dated 2026).

Experiment [1] relates to heparan sulfate proteoglycans (HSPGs) side chains. The experiment in a line: Western blot of heparan sulfate GAGs (10E4) produced by astrocytes. It is filed as cell-based, mouse. From the text: Compounds that were able to reduce chondroitin GAGs were also investigated for their ability to reduce heparan sulfate GAGs. […] D. & de Vries, H. E. Extensive extracellular matrix depositions in active multiple sclerosis lesions. Neurobiology of disease 24, 484-491 (2006); van Horssen, J., Bö, L., Vos, C. M., Virtanen, I. & de Vries, H. E. Basement membrane proteins in multiple sclerosis-associated inflammatory cuffs: potential role in influx and transport of leukocytes. Journal of neuropathology and experimental neurology 64, 722-729 (2005)] and have detrimental pro-inflammatory capabilities [Parish, C. R. The role of heparan sulphate in inflammation. Nature reviews. Immunology 6, 633-643 (2006)].
Astrocytes were plated in uncoated 6-well plates (3 replicate wells per treatment) at 1×10^6 cells/well in mixed glial media, and incubated at 5% CO2 and 37° C. Astrocytes were treated with compounds at 50 μM in AIM-V media for 48 hours. Media was pooled from 3 replicate wells in 15 ml 100K cutoff centricon tubes (EMD Millipore, #UFC905008), which were spun on an ultracentrifuge at 5000× g for 2 cycles of 10 minutes each. When harvested, the cell lysate was kept on ice for 5 minutes with 250 μL of RIPA buffer (ThermoFisher Scientific #89900) containing proteinase inhibitor, and then collected and centrifuged at 14000 g for 5 minutes. Total protein was quantified using a Bradford assay. Conditioned media that were to be probed for chondroitin 4-sulfate GAGs (Millipore, #MAB2030) were first digested with 0.2 U/ml chondroitinase ABC for overnight at 37° C. to remove chondroitin sulfate sidechains. Blots that were to be probed with CSA (2H6, Cosmo) or CS56 (Abcam #ab11570) were not exposed to chondroitinase ABC. Samples were heat denatured with NuPAGE® LDS Sample buffer at 70° C. for 10 minutes and then loaded into 3-8% tris-acetate pre-cast gels (ThermoFisher, #EA0478BOX). The gels were electrophoresed at a constant 150 V for 90 minutes and transferred to a […] polyvinylidene fluoride membrane at a constant 250 mA for 60 minutes. The membranes were blocked for one hour with 10% skim milk in Tris-buffered saline (TBS; 0.9% NaCl, 10 mM Tris-HCl, pH 7.5) containing 0.5% Tween 20 (TBS-T). Primary antibodies were added in 3% skim milk and incubated overnight at 4° C. The membranes were washed 5×5 minutes with TBS-T. HRP-conjugated secondary antibodies were incubated for 120 minutes. The membranes were washed again for 5×5 minutes with TBS-T. Membranes were developed using an ECL chemiluminescence kit (GE Lifesciences) and manually exposed to developing and fixative solutions. Band density was quantified using Gel Analysis on ImageJ. A rectangular shape measured the density of bands for each lane. […]

The test system of experiment [2] is intact 4-sulfated chondroitin sulfate sidechains (2H6). The experiment in a line: Western blot of astrocyte conditioned medium, 2H6 (intact chondroitin-4-sulfate). The class given is cell-based, mouse. As to conditions: astrocyte conditioned media. From the text: Astrocytes are major producers of CSPGs following injury in the CNS [Jones, L. L., Margolis, R. U. & Tuszynski, M. H. The chondroitin sulfate proteoglycans neurocan, brevican, phosphacan, and versican are differentially regulated following spinal cord injury. Experimental Neurology 182, 399-411 (2003); Tang, X., Davies, J. E. & Davies, S. J. Changes in distribution, cell associations, and protein expression levels of NG2, neurocan, phosphacan, brevican, versican V2, and tenascin-C during acute to chronic maturation of spinal cord scar tissue. […] The Journal of neuroscience: the official journal of the Society for Neuroscience 20, 2427-2438 (2000); McKeon, R. J., Jurynec, M. J. & Buck, C. R. The chondroitin sulfate proteoglycans neurocan and phosphacan are expressed by reactive astrocytes in the chronic CNS glial scar. The Journal of neuroscience: the official journal of the Society for Neuroscience 19, 10778-10788 (1999); Haas, C. A., Rauch, U., Thon, N., Merten, T. & Deller, T. Entorhinal cortex lesion in adult rats induces the expression of the neuronal chondroitin sulfate proteoglycan neurocan in reactive astrocytes. The Journal of neuroscience: the official journal of the Society for Neuroscience 19, 9953-9963 (1999)] and they may help drive progression of disability in a model of progressive MS [Mayo, L. et al. Regulation of astrocyte activation by glycolipids drives chronic CNS inflammation. Nature medicine 20, 1147-1156 (2014)]. Therefore astrocytes were used as model cells to determine the ability of the sugar analogs to reduce synthesis of CSPGs. Since CSPGs are exported out of cells, the conditioned media from analog-treated astrocytes were probed by Western blots (FIG. 4). We used antibodies to both the stubs of chondroitin sulfate GAGs attached to the core protein (MAB2030) and to intact 4-sulfated chondroitin sulfate sidechains (2H6) (FIG. 4a). Particularly, we used the 2H6 antibody to label intact 4-sulfated chondroitin sulfate sidechains, and the MAB2030 antibody to detect the stubs of chondroitin sulfate GAGs attached to the core protein. […] 1998, 160 (8), 3812-3819. Poole Poole C. A.; Glant T. T.; Schofield J. R.; Chondrons from articular cartilage. (IV). Immunolocalization of proteoglycan epitopes in isolated canine tibial chondrons. J. Histochem. Cytochem. 1991, 39 (9), 1175-1187].
Astrocytes were plated in uncoated 6-well plates (3 replicate wells per treatment) at 1×10^6 cells/well in mixed glial media, and incubated at 5% CO2 and 37° C. Astrocytes were treated with compounds at 50 μM in AIM-V media for 48 hours. Media was pooled from 3 replicate wells in 15 ml 100K cutoff centricon tubes (EMD Millipore, #UFC905008), which were spun on an ultracentrifuge at 5000× g for 2 cycles of 10 minutes each. […] Total protein was quantified using a Bradford assay. […]

Each structure is given as a SMILES string.

As for `CCCC(=O)OC[C@H]1OC(O)[C@H](NC(C)=O)[C@@H](OC(=O)CCC)[C@@H]1F` (stereo partly drawn) [Compound 12, 2-Acetamido-3,6-di-O-butanoyl-2,4-dideoxy-4-fluoro-α/β-3-D-glucopyranose], the “HSPG side chains (intact heparan sulfate GAGs, 10E4)” value (“HSPG side chains” for short) in experiment [1] is listed as “slight reduction in HSPG side chains”.

In the case of `CCC(=O)OC1OC(COC(C)=O)[C@@H](F)[C@H](OC(C)=O)C1NC(C)=O` (stereo partly drawn) [Compound 7, 2-Acetamido-3,6-di-O-acetyl-2,4-dideoxy-4-fluoro-1-O-propanoyl-α/β-D-glucopyranose], in experiment [2], the “total chondroitin sulfate side chains (2H6)” value is “showed evidence of reducing total chondroitin sulfate side chains”.

Take `CC(=O)NC1C(OC(C)=O)OC(COC(C)=O)[C@@H](F)C1OC(C)=O` (some centres unmarked) [Compound 3, reference compound]: the “HSPG side chains” value in experiment [1] was “slight reduction in HSPG side chains”. In experiment [2], the “total chondroitin sulfate side chains (2H6)” value is “showed evidence of reducing total chondroitin sulfate side chains”.

Regarding `CCCC(=O)OC1OC(COC(C)=O)[C@@H](F)[C@H](OC(C)=O)C1NC(C)=O` (mixture of isomers) [Compound 8, 2-Acetamido-3,6-di-O-acetyl-1-O-butanoyl-2,4-dideoxy-4-fluoro-α/β-D-glucopyranose], in experiment [1], the “HSPG side chains” value is recorded as “slight reduction in HSPG side chains”.

Consider `CC(=O)NC1C(O)OC(COC(C)=O)[C@@H](F)[C@@H]1OC(C)=O` (mixture of isomers) [Compound 10], for which, in experiment [2], the “total chondroitin sulfate side chains (2H6)” value is “showed evidence of reducing total chondroitin sulfate side chains”.

Regarding `CC(=O)NC1C(OC(C)=O)OC(COC(C)=O)C(F)(F)[C@@H]1OC(C)=O` (mixture of isomers) [Compound 16, 2-Acetamido-1,3,6-tri-O-acetyl-2,4-dideoxy-4,4-difluoro-α/β-D-xylo-hexopyranose], in experiment [1], the “HSPG side chains” value was “slight reduction in HSPG side chains”. Besides, in experiment [2], the “total chondroitin sulfate side chains (2H6)” value is “showed evidence of reducing total chondroitin sulfate side chains”.
